# Like-named read-outs stand apart in the source and are kept apart here.
# Experiments:
# [1] = Metabolic stability (intrinsic clearance) in dog liver microsomes; type: in vitro ADME, dog (Beagle); details: for microsomal CLint at 1 μM: Beagle; for percent of the remaining compound: after 60 minute incubation
# Experimental: (§1) Liver microsomal incubations contained 0.1mg/mL microsomal proteins and 1 μM of FTY720-C2 or FTY720-Mitoxy in 100 mM potassium phosphate buffer (pH 7.4) ± an NADPH regenerating system (3.5 mM glucose 6-phosphate, 1.3 mM NADP^+, and 0.4 units/mL glucose-6-phosphate dehydrogenase). Following incubations, reactions were terminated for analysis after 0, 10, 20, 30, and 60 min by the addition of acetonitrile containing C17 sphingosine (300 ng/mL) as the internal standard. Samples were vigorously mixed and centrifuged at 3,400 rpm for 10 min to pellet precipitated proteins. An aliquot of each supernatant was used for LC/MS analysis, for determination of the remaining FTY720-C2 and FTY720-Mitoxy. Similar incubations were performed using a cocktail solution containing 0.2 μM midazolam and 1 μM diclofenac to determine the metabolic activity of the microsomes as an additional control.
# (§2) Samples resulting from liver microsomal incubations were analyzed by LC-MS/MS. Aliquots of the supernatants were injected onto an X-Bridge C18 column (2.1 × 50 mm, 3.5-μm particles) (Waters, Milford, MA), preceded by a SecurityGuard C18 guard column (4.0 × 2.0 mm; Phenomenex Inc.). Separations were accomplished with a gradient of 0.1% acetic acid in water (v/v) versus 0.1% acetic acid in acetonitrile: methanol (75:25, v/v) at a rate of 0.8 mL/min. The eluents were further applied into an equipped API 4000 QTrap mass spectrometer (AB Sciex, Foster City, CA) with electrospray ionization (ESI) interface by two coupled LC-10 AT pumps. Peak area ratios of FTY720-C2 or FTY720-Mitoxy against the C17 sphingosine internal standard were used to determine the amount of parent remaining compared to that at 0 min. The percent of FTY720-C2 or FTY720-Mitoxy remaining was calculated by dividing the peak area ratio obtained at each time point by that obtained at 0 min. The in vitro intrinsic clearance (CLint) was calculated by linear regression of the log percent of compound remaining versus time plots using Microsoft Excel, two independent experiments (n = 2) were performed for each compound and species. Then, the mean and standard deviation (SD), of two values for each condition, were calculated using Microsoft Excel with the “AVERAGE” and “STDEV” functions, respectively.
# [2] = Plasma and brain pharmacokinetics after single oral or intravenous dosing of mice; type: in vivo; details: for half-life / Tmax: male; for half-life: iv; for oral bioavailability: single oral dose
# Experimental: The objectives of this study were to evaluate the pharmacokinetic profiles of FTY720-C2 and FTY720-Mitoxy following single oral and intravenous (IV) dosing of male mice and to determine blood and tissue levels of both compounds at various postdose time points. Male C57BL/6 mice were 8.4 weeks of age and weighed 20.6–24.8 g on the day of dose administration. Each animal was identified by a unique number via an ear tag with a matching cage tag. Mice were administered (two mice per time point) a single equivalent molar dose of either FTY720-C2 (1 mg/kg) or FTY720-Mitoxy (2 mg/kg) by oral or intravenous administration. As the molecular weight of FTY720-Mitoxy (704.72 g/mol) is ~ two times greater than that of FTY720-C2 (349.51 g/mol), the dose level of FTY720-Mitoxy was double that of FTY720-C2. Details of the design showing group assignments, dose groups, dose levels, as well as blood collection and necropsy time points are shown in Table 2. At the appropriate time points after dosing and blood sample collection for bioanalysis, animals were euthanized by CO2 inhalation until unresponsive, followed by decapitation. Brains were rapidly harvested, rinsed with ice cold saline, blotted dry and bisected along the mid-line. The left and right hemispheres of the brain were weighed separately. Each was placed in separate tubes, immediately flash frozen in liquid nitrogen and stored at -70°C prior to evaluation. All samples were labeled with the test facility study number, animal identification number, dose group, date, collection interval, and tissue identity (left or right brain hemisphere). Adrenal glands from each mouse were also collected and flash frozen.
# FTY720-C2 and FTY720-Mitoxy concentrations in plasma and brain were determined by LC-MS/MS. Samples were first prepared by liquid-liquid extraction. To 50 μL of plasma or brain homogenate were added 50 μL of 0.1 M NaOH and 50 μL of internal standard solution (C17 sphingosine) in ethanol. Analytes were then extracted into 1 mL of methyl tert-butyl ether:dichloromethane mixture (75:25, v/v) by vortexing for 1 hr and centrifuged. Supernatants were evaporated to dryness under nitrogen. Residues were reconstituted in 150 μL of 50% methanol in water and spin filtered before applied onto XBridge C18 column (3.5-μm particle; Waters, Milford, MA) with a SecurityGuard C18 guard column (4.0 × 2.0 mm; Phenomenex Inc.). Separations were accomplished with a gradient of 0.1% acetic acid in water (v/v) versus 0.1% acetic acid in acetonitrile:methanol (75:25, v/v) at a rate of 0.5 mL/min. The eluents were further applied into an equipped API 4000 QTrap mass spectrometer (AB Sciex, Foster City, CA) with electrospray ionization (ESI) interface by two coupled LC-10 AT pumps, and monitored in multiple reaction monitoring (MRM) mode with precursor to product ion pairs for C17 sphingosine, FTY720-C2, and FTY720-Mitoxy as following: m/z 286.3 to 268.2, m/z 350.3 to 255.2, and m/z 624.4 to 289.2, respectively.
# Pharmacokinetic analysis was conducted using WinNonlin Version 6.2 (Pharsight, Mountain View CA), operating as a validated software system. Non-compartmental analysis was conducted using a bolus intravenous administration model for IV dosing and an extravascular administration model for oral dosing. The peak plasma concentration, time to achieve peak plasma concentration, half-life, mean residence time, and area under the plasma or brain concentration-time curve (Cmax, Tmax, T1/2, and AUC) were calculated from mean animal plasma and brain concentrations. Nominal blood collection times were used for pharmacokinetic calculations.
# [3] = Metabolic stability (intrinsic clearance) in mouse liver microsomes; type: in vitro ADME, mouse (CD-1); details: for percent of the remaining compound: after 60 minute incubation
# Experimental: as §1, §2
# [4] = Metabolic stability (intrinsic clearance) in human liver microsomes; type: in vitro ADME; details: for percent of the remaining compound: after 60 minute incubation; for microsomal CLint at 1 μM: pH 7.4, 0.1 mg/mL protein, mean of two determinations
# Experimental: as §1, §2
# [5] = IV administration, sampling 5 min, 8, 24, 48 hr
# [6] = oral administration, 1 mg/kg, first sampling time point
compound,measurement,setting,value
"CCCCCCCCc1ccc(CCC(CO)(CO)NC(=O)CC[P+](c2ccccc2)(c2ccccc2)c2ccccc2)cc1 [FTY720-Mitoxy, N-(1-hydroxy-2-(hydroxymethyl)-4-(4-octylphenyl)butan-2-yl)-3’-triphenylphosphoniumpropanamide]",microsomal CLint at 1 μM,"[1]; dog, liver microsomes, pH 7.4, dog liver microsomes, 0.1 mg/mL protein, 1 μM, mean of two determinations",1.4 µL/min/mg
same,intrinsic clearance interpreted in words,[1]; dog liver microsomes,low
same,Clint (intrinsic clearance),"[1]; dog liver microsomes, 0.1 mg/mL protein, 1 μM, mean of two determinations",1.35 ± 1.48 µL/min/mg
same,percent of the remaining compound,[1]; dog liver microsomes,112.5 ± 5.0%
same,detected in plasma and brain up to (postdose),[2]; [5],48 h
same,time to penetrate the blood-brain-barrier after delivery,[2]; IV dosing,≤ 5 min
same,Tmax / time of highest concentration in brain,"[2]; IV dosing, FTY720-C2 1 mg/kg or FTY720-Mitoxy 2 mg/kg, first sampling time point",5 min
same,half-life,"[2]; mouse, in vivo, 2 mg/kg, IV dosing, 2 mg/kg, read-out: brain elimination half-life (converted)",106 min
same,half-life,"[2]; mouse, in vivo, 2 mg/kg, IV dosing, 2 mg/kg, read-out: plasma elimination half-life (converted)",56.4 min
same,half-life,"[2]; mouse, in vivo, 2 mg/kg, mice, IV, plasma and brain, read-out: half-lives",< 120 min
same,Tmax,"[2]; mouse, in vivo, IV dosing, FTY720-C2 1 mg/kg or FTY720-Mitoxy 2 mg/kg, first sampling time point, read-out: Tmax / time of highest concentration in plasma (converted)",5 min
same,partitioning to brain,[2]; mice,preferentially partition to brain
same,oral bioavailability,[2]; mice,not orally bioavailable
same,detection in plasma or brain following oral dosing,"[2]; oral, 2 mg/kg",not detected
same,microsomal CLint at 1 μM,"[3]; CD-1, mouse, liver microsomes, pH 7.4, mouse liver microsomes, 0.1 mg/mL protein, 1 μM, mean of two determinations",1.8 µL/min/mg
same,intrinsic clearance interpreted in words,[3]; mouse liver microsomes,low
same,Clint (intrinsic clearance),"[3]; mouse liver microsomes, 0.1 mg/mL protein, 1 μM, mean of two determinations",1.75 ± 1.34 µL/min/mg
same,percent of the remaining compound,[3]; mouse liver microsomes,82.5 ± 16.3%
same,intrinsic clearance interpreted in words,[4],moderate
same,percent of the remaining compound,[4],35.5 ± 2.3%
same,microsomal CLint at 1 μM,[4],17.5 ± 1.7 µL/min/mg
"CCCCCCCCc1ccc(CCC(CO)(CO)NC(C)=O)cc1 [FTY720-C2, N-(1-hydroxy-2-(hydroxymethyl)-4-(4-octylphenyl)butan-2-yl)acetamide]",microsomal CLint at 1 μM,"[1]; pH 7.4, dog liver microsomes, 0.1 mg/mL protein, 1 μM, mean of two determinations",6 ± 0.28 µL/min/mg
same,intrinsic clearance interpreted in words,[1]; dog liver microsomes,low
same,percent of the remaining compound,[1]; dog liver microsomes,69.9 ± 0.6%
same,detected in plasma and brain up to (postdose),[2]; [5],8 h
same,time to penetrate the blood-brain-barrier after delivery,[2]; IV dosing,≤ 5 min
same,brain concentrations compared with plasma at 8 hr postdose,"[2]; after both IV and oral dosing, 8 hr postdose",much higher
same,Tmax,"[2]; C57BL/6, mouse, brain, IV dosing, FTY720-C2 1 mg/kg or FTY720-Mitoxy 2 mg/kg, first sampling time point, read-out: Tmax / time of highest concentration in brain (converted)",5 min
same,Tmax,"[2]; C57BL/6, mouse, plasma, IV dosing, FTY720-C2 1 mg/kg or FTY720-Mitoxy 2 mg/kg, first sampling time point, read-out: Tmax / time of highest concentration in plasma (converted)",5 min
same,partitioning to brain,[2]; mice,preferentially partition to brain
same,oral bioavailability,[2]; mice,orally bioavailable
same,time of highest concentration in brain,[2]; [6],1 h
same,time of highest concentration in plasma,[2]; [6],1 h
same,detected in plasma and brain up to (postdose),"[2]; oral administration, sampling 1, 8, 24, 48 hr",8 h
same,microsomal CLint at 1 μM,"[3]; CD-1, pH 7.4, mouse liver microsomes, 0.1 mg/mL protein, 1 μM, mean of two determinations",22.5 ± 2.12 µL/min/mg
same,intrinsic clearance interpreted in words,[3]; mouse liver microsomes,moderate
same,percent of the remaining compound,[3]; mouse liver microsomes,29.5 ± 2.1%
same,intrinsic clearance interpreted in words,[4],moderate
same,percent of the remaining compound,[4],33.5 ± 4.5%
same,microsomal CLint at 1 μM,[4],18.3 ± 2.4 µL/min/mg

# Source: paper PMC5017749, “Preclinical Metabolism, Pharmacokinetics and In Vivo Analysis of New Blood-Brain-Barrier Penetrant Fingolimod Analogues: FTY720-C2 and FTY720-Mitoxy” (PLoS ONE, 2016)
